According to US6607727B1, “Peptides for inducing cytotoxic T lymphocyte responses to hepatitus B virus” (priority 1991, dated 2003):

What was measured:
[1] = tested on: HBpol455-463 specific CTL; format: cell-based, human
[2] = tested on: PBMCs from a patient with acute hepatitis; test: CTL response to HBx peptide in PBMCs of a patient with acute hepatitis, HLA-A2 matched peptide-pulsed targets; format: cell-based, human
[3] = tested on: CTL clone 3D11 (HLA A31 restricted); format: cell-based, human
CTL clones 3D11 and 2D7 = details: peptide 10-3 μM to 1μM
[4] = tested on: CTL clone 2D7 (HLA Aw68 restricted); format: cell-based, human
[5] = tested on: PBMCs from a patient with acute hepatitis; test: CTL response to HBenv 348-357 peptide in PBMCs of a patient with acute hepatitis, HLA-A2 matched targets; format: cell-based, human
Protocol: The CTL induced by the HBenv 348-357 peptide were identified in PBMCs from a patient with acute hepatitis according to the procedure set forth in Example XV, except that the PMBCs were stimulated with individual peptide rather than peptide mixtures. The resulting CTL line was then tested for the ability to kill HLA-A2 matched target cells that were pulsed with the peptide or that expressed endogenous envelope antigens of ayw or adw subtypes.

GVSRYVARL [variant of HBpol455-463 (ayw isolate)]
recognition by GLSRYVARL (HBpol455-463) induced CTL [1]: poorly recognized

AIRLKVFVL [HBx peptide 126-134 with the amino terminal residue substituted with alanine]
induction of specific CTL response by peptide [2]: CTL were stimulated

STLPETTVVRR [141-151]
Clone 3D11 Restriction Element A31 Percent 51CR Release [3]: 69%
efficiency of target lysis in dose titration (CTL clones 3D11 and 2D7): minimal optimally recognized epitope recognized by both of the CTL clones
Clone 2D7 Restriction Element Aw68 Percent 51CR Release [4]: 66%

Gly-Leu-Ser-Pro-Thr-Val-Trp-Leu-Ser-Val (GLSPTVWLSV; printed: Gly-Leu-Ser-Pro-Thr-Val-Trp-Leu-Ser-Val) [HBenv peptide 348-357]
CTL recognition of envelope antigen of the adw subtype [5]: did not recognize the adw subtype
CTL response to target cells pulsed with peptide ([5]; effector:target cell ratio of 3:1): responded to target cells

EIRLKVFVL
induction of specific CTL response by peptide [2]: not able to induce a specific CTL response
recognition by CTL induced with the analog peptide AIRLKVFVL [2]: also recognized the peptide with the wild type sequence
